Laboratory results published in patent publication EP2112152A1, “Dihydropteridinones as Plk Inhibitors” (GPC Biotech AG, priority 2008, dated 2009).
Read-outs that look alike come from different tables or passages of the source.

What was measured:
HCT 116 = assay: SRB cell proliferation assay, HCT 116; type: cell-based; conditions: Homo sapiens
Method: (§1) We observed the surprising finding that compounds of the invention were useful in inhibiting proliferation of tumor cell lines (see Table 3).
(§2) Cells were exposed to the test compounds at various concentrations appropriate to determine an IC50 for 72 hours. Cell proliferation was measured using the SRB assay according to Shekan et al (J Natl Cancer Inst (1990) 82, 1107-112) in order to estimate the IC50 values shown in Table 3. Briefly, cells were plated in 96 well dishes 24 hours prior to compound addition at the densities specified in Table 5.1. The assay was terminated with the addition of cold TCA to a final concentration of 10% after growth medium has been removed and the plates were incubated over night at 4°C. The plates were then washed 5 times with water and 100µl of a Sulforhodamine B solution (4%) was added to each well. The plates were then incubated for 10 minutes at room temperature before removal of unbound dye by washing with 1% acetic acid. The bound dye was solubilised with 10 mM Trizma base and the absorbance read at OD520.
(§3) Inhibitory activity of the compounds (IC) was calculated as % inhibition of cell proliferation compared to cells treated with the solvent (DMSO).
(§4) Table 8.1: 18-Cell Line Panel

HT-29 = assay: SRB cell proliferation assay, HT-29; type: cell-based; conditions: Homo sapiens
Method: as §1, §2, §3, §4

IMR-90 = assay: SRB cell proliferation assay, IMR-90; type: cell-based; conditions: Homo sapiens
Method: as §1, §2, §3, §4

A-431 = assay: SRB cell proliferation assay, A-431; type: cell-based; conditions: Homo sapiens, 18-Cell Line Panel, skin
Method: as §2, §4

A549 = assay: SRB cell proliferation assay, A549; type: cell-based; conditions: Homo sapiens, 18-Cell Line Panel, lung
Method: as §2, §4

ACHN = assay: SRB cell proliferation assay, ACHN; type: cell-based; conditions: Homo sapiens, 18-Cell Line Panel, kidney
Method: as §2, §4

DU 145 = assay: SRB cell proliferation assay, DU 145; type: cell-based; conditions: Homo sapiens, 18-Cell Line Panel, prostate, read-out: IC50 DU145
Method: as §2, §4

MDA-MB-468 = assay: SRB cell proliferation assay, MDA-MB-468; type: cell-based; conditions: 18-Cell Line Panel; breast
Method: as §2, §4

NCI-H460 = assay: SRB cell proliferation assay, NCI-H460; type: cell-based; conditions: Homo sapiens, 18-Cell Line Panel, NSCLC
Method: as §2, §4

OVCAR-3 = assay: SRB cell proliferation assay, OVCAR-3; type: cell-based; conditions: Homo sapiens, 18-Cell Line Panel, ovary
Method: as §2, §4

PC-3 = assay: SRB cell proliferation assay, PC-3; type: cell-based; conditions: Homo sapiens, 18-Cell Line Panel, prostate
Method: as §2, §4

SW620 = assay: SRB cell proliferation assay, SW620; type: cell-based; conditions: Homo sapiens, SW-620; 18-Cell Line Panel; colon
Method: as §2, §4

A-375 = assay: SRB cell proliferation assay, A-375; type: cell-based; conditions: Homo sapiens, 18-Cell Line Panel, melanoma
Method: as §2, §4

HeLa = assay: SRB cell proliferation assay, HeLa; type: cell-based; conditions: Homo sapiens, 18-Cell Line Panel, cervix
Method: as §2, §4

MDA-MB-231 = assay: SRB cell proliferation assay, MDA-MB-231; type: cell-based; conditions: Homo sapiens, 18-Cell Line Panel, breast
Method: as §2, §4

SK-MEL-28 = assay: SRB cell proliferation assay, SK-MEL-28; type: cell-based; conditions: Homo sapiens, 18-Cell Line Panel, melanoma
Method: as §2, §4

SK-MEL-5 = assay: SRB cell proliferation assay, SK-MEL-5; type: cell-based; conditions: Homo sapiens, 18-Cell Line Panel, melanoma
Method: as §2, §4

COLO 205 = assay: SRB cell proliferation assay, COLO 205; type: cell-based; conditions: Homo sapiens, 18-Cell Line Panel, colon
Method: as §2, §4

[1] = tested on: Abl, Akt1, Aur A, c-Kit, c-Raf, Cdk1/CycB, Chk1, FGFR3, Flt3, Fyn, IGF1-R, INSR, Lyn, MAPK-ERK1, p38a, PAK4, PKCalpha, Ret, ROCK2, RSK 1, c-Src, TIE2, and …; assay: Selectivity panel (Proteros), 23 other kinases; type: biochemical; conditions: tested at 1 mM in triplicates; each of the 23 other kinases
Method: Selected compound of the present invention were tested in a standard selectivity panel including Plk1 and 23 other kinases (Proteros biostructures GmbH, Martinsried/Munich, Germany), under conditions of non-disclosure, non-dissemination and non-use.
In brief, compounds 1, 13, 14, and 25 (see Table 1) were tested at 1 mM in triplicates against Plk1 as well as against Abl, Akt1, Aur A, c-Kit, c-Raf, Cdk1/CycB, Chk1, FGFR3, Flt3, Fyn, IGF1-R, INSR, Lyn, MAPK-ERK1, p38a, PAK4, PKCalpha, Ret, ROCK2, RSK 1, c-Src, TIE2, and VEGF-R2.

Plk1 = Plk1 (Homo sapiens, UniProt P53350); assay: Cellular Plk1 kinase activity: nucleophosmin (B23) Ser4 phosphorylation in HCT116 cells (MSD electrochemiluminescence); type: cell-based; set-up: host or cells: HCT116; conditions: 100 ng/ml nocodazole, 4 hours after compound addition, read-out: Biochemical IC50 Nucleophosmin assay
Method: We observed the surprising finding that compounds of the invention were able to penetrate cell membranes and retained their activity as Plk1 inhibitors against native Plk1 expressed within living cancer cells.
Cellular Plk1 kinase activity was measured by quantification of nucleophosmin (B23) Ser4 phosphorylation in a cancer cell line. Nucleophosmin (B23) Ser4 is phosphorylated by Plk1, and this phosphorylation can be specifically detected by cross-reactivity of a phospho-Mek1/2 antibody that is able to recognizes a mitotic-specific phosphorylated form of nucleophosmin (B23) in a nocodazole dependent way (Zhang, H., Shi, X., Paddon, H., Hampong, M., Dai, W., and Pelech, S. (2004) B23/Nuleophosmin Serin 4 Phosphorylation Mediates Mitotic Functions of Polo-like Kinase 1. J. Biol. Chem., 279(34), 35726-35734).
Briefly, HCT116 cells (ATCC, Order No. CCL-247) were plated in 96 well dishes 24 hours prior to nocodazole treatment at 25 000 cells per well. Cells were then treated with 100 ng/ml nocodazole (Sigma-Aldrich, # M1404). 20 hours after nocodazole treatment, cells were exposed to the test compounds at various concentrations appropriate to determine an IC50. 4 hours after compound addition, medium was carefully removed and 120 µl of Complete Tris Lysis Buffer (R60TX; MSD, Gaithersburg MD) was added to each well. Samples were then stored at -20°C.
The level of nucleophosmin (B23) Ser4 phosphorylation in these cell lysis samples was estimated by electrochemiluminescence detection using the Meso Scale Discovery ("MSD") Technology Platform (MSD, Gaithersburg MD). The protocol used was as recommended by the manufacturer with the use of a phospho-Mek1/2 antibody (Cell Signalling, #9121) as primary antibody, and is as follows.
The cell lysates were thawed at room temperature and 40 µl were incubated on 96-well MULTI-ARRAY High Bind plates (L11XB; MSD) for 1.5 - 2 hours at room temperature. The supernatants were then removed and 150 µl of a 5% (w/v) solution of Blocker A (R93AA; MSD) in Tris Wash Buffer (R61TX; MSD) were added to each well. The plates were then incubated for 1 hour at room temperature before removal of the Blocker A solution and washed 4 times with 200 µl Tris Wash Buffer. 25 µl primary antibody (anti-phospho-MEK1/2, Cell Signalling, #9121, rabbit polyclonal), diluted 1:250 in a 1% (w/v) solution of Blocker A in Tris Wash Buffer, were added to each well. The plates were then incubated for 1 hour at room temperature before removal of the antibody solution and washed 4 times with 200 µl Tris Wash Buffer. Then, 25 µl of labelled secondary antibody (SULFO-TAG Goat Anti-Rabbit IgGAntibody (R32AB; MSD), diluted 1:500 in a 1% (w/v) solution of Blocker A in Tris Wash Buffer) were added to each well. The plates were then incubated for 1 hour at room temperature before removal of the antibody solution and washed 4 times with 200 µl Tris Wash Buffer. Then, […] of 1x Read Buffer T (R92TC; MSD) were carefully added to each well and the plates were quantitatively detected for each well with a SECTOR™ Imager 6000 (MSD).
Inhibitory activity of the compounds (IC) was calculated as % inhibition of nucleophosmin (B23) Ser4 phosphorylation compared to cells not treated with nocodazole.

[2] = HCT-116, 72 h, 72 hours, SRB assay, read-out: CELLULAR IC50 HCT 116
[3] = HT-29, 72 h, 72 hours, SRB assay, read-out: CELLULAR IC50 HT-29
[4] = 72 hours, SRB assay, slow cycling cell line, read-out: CELLULAR IC50 IMR-90

Chain of Plk1 (P53350 whole entry, species assumed): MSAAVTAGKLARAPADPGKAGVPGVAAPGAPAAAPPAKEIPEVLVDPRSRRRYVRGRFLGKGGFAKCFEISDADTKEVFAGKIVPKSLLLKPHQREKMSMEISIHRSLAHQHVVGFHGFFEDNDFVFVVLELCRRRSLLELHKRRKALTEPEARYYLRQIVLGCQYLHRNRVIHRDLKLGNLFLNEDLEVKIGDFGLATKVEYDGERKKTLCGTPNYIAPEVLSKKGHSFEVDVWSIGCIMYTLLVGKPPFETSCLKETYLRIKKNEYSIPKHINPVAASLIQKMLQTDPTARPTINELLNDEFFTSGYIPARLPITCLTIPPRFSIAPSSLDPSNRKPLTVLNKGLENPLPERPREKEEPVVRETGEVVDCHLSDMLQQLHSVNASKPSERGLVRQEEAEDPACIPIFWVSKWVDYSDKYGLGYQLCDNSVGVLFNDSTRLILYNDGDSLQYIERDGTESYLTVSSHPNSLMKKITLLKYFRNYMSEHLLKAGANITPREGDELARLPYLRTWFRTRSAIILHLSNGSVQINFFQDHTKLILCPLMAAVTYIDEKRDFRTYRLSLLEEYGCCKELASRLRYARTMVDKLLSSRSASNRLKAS

`CCC1C(=O)N(C)c2cnc(Nc3ccc(C(=O)NC4CCN(C)CC4)cc3OC)nc2N1C1CCCC1` (centres unmarked) [BI 2536, reference compound] gave an IC50 (HCT 116; HCT-116, 18-Cell Line Panel, colon, read-out: IC50 HCT116) of less than 1 µM, an IC50 (HT-29; HT-29, 18-Cell Line Panel, colon, read-out: IC50 HT-29) of less than 1 µM and an IC50 (IMR-90; 18-Cell Line Panel, lung, read-out: IC50 IMR-90) greater than 1 µM. For the same molecule, the IC50 (A-431) was less than 1 µM, the IC50 (A549) was less than 1 µM and the IC50 (ACHN) was less than 1 µM. For the same molecule, the IC50 (DU 145) was less than 1 µM, the “IC50 MDA-MB-468” value (MDA-MB-468) was “plateau at ∼50%” and the IC50 (NCI-H460) was less than 1 µM. The IC50 (OVCAR-3) was less than 1 µM, the IC50 (PC-3) was less than 1 µM and the IC50 (SW620) was less than 1 µM. For the same molecule, the IC50 (A-375) was less than 1 µM, the IC50 (HeLa) was less than 1 µM and the IC50 (MDA-MB-231) was less than 1 µM. For the same molecule, the IC50 (SK-MEL-28) was less than 1 µM, the IC50 (SK-MEL-5) was less than 1 µM and the IC50 (COLO 205) was less than 1 µM.
For `CCC1C(=O)N(C)c2cnc(Nc3ccc(C(=O)NC4CCN(C5CCN(Cc6ccccc6)CC5)CC4)cc3OC)nc2N1N(C)C` (centres unmarked) [Compound 14, N-(1'-Benzyl-[1,4']bipiperidinyl-4-yl)-4-(8-dimethylamino-7-ethyl-5-methyl-6-oxo-5,6,7,8-tetrahydro-pteridin-2-ylamino)-3-methoxy-benzamide], the “all other kinases were inhibited” value [1] was “less than 10%”, the IC50 (HCT 116; [2]) was less than 1 µM and the IC50 (HT-29; [3]) was less than 1 µM. It also gave an IC50 (IMR-90; [4]) greater than 1 µM and an IC50 (Plk1) of less than 0.1 µM.
`CCC1C(=O)N(C)c2cnc(Nc3ccc(C(=O)NC4CCN(C)CC4)cc3OC)nc2N1N(C)CC` (centres unmarked) [Compound 25, 4-[7-Ethyl-8-(ethyl-methyl-amino)-5-methyl-6-oxo-5,6,7,8-tetrahydro-pteridin-2-ylamino]-3-methoxy-N-(1-methyl-piperidin-4-yl)-benzamide] was tested, and the “all other kinases were inhibited” value [1] was “less than 10%”, the IC50 (HCT 116; [2]) was less than 1 µM and the IC50 (HT-29; [3]) was less than 1 µM. For the same molecule, the IC50 (IMR-90; [4]) was greater than 1 µM and the IC50 (Plk1) was less than 0.1 µM.
`CCC1C(=O)N(C)c2cnc(Nc3ccc(C(=O)NCC4CCN(CC)CC4)cc3OC)nc2N1N(C)CC1CCC1` (centres unmarked) [Compound 34, 4-[8-(Cyclobutylmethyl-methyl-amino)-7-ethyl-5-methyl-6-oxo-5,6,7,8-tetrahydro-pteridin-2-ylamino]-N-(1-ethyl-piperidin-4-ylmethyl)-3-methoxy-benzamide] was tested, and the IC50 (HCT 116; [2]) was less than 1 µM, the IC50 (HT-29; [3]) was less than 1 µM and the IC50 (IMR-90; [4]) was greater than 1 µM. The IC50 (Plk1) was less than 0.5 µM.
